Data reported in patent US8492159B2, “Methods and compositions for treating conditions” (priority 2004, dated 2013).

Legend:
[1] = system: post-operative pain in rats; assay: Hind paw withdrawal threshold (von Frey filaments) after surgery, second study; assay type: in vivo, rat
Experimental: In a second independent study the rat hind paw withdrawal sensitivity was again evaluated after 3 h and 3 day post-surgery when the rats had received SEQ ID NO: 1 at three different concentrations: 1, 15 and 50 mg/kg. The dosing route was subdermal injection adjacent to the wound site. The rats received one dose 3 hours after the surgery and on Day 3 post-surgery, group 3 was dosed again as described in the Table IV. Pain measurements were taken 15-20 min after application of the drug. Baseline pain behavior was measured as follows: Withdrawal responses to mechanical stimulation were determined using von Frey filaments applied from underneath the cage through openings (12×12 mm in the plastic mesh floor to an area adjacent to the intended incision. Each von Frey filament (Target force of 0.008 g to 300 g) was applied once starting with 0.008 g filament and continuing until a withdrawal response occurred or 300 g force was reached. The median force producing a response, determined from three tests given over a 10-min period was considered the withdrawal threshold.
In the saline treated animals, the control, 3-hour post-surgery were 25.1, 4.4 and 12.7 g, indicating significant hyperalgesic response immediately after surgery which subsided by Day-3. […] The withdrawal response in the 50 mg/kg SEQ ID NO: 1 administered on Day-1 was 9.9 g compared to the 4.4 g for the saline group at the same time-point, indicating a 125% effect. The data expressed as mean±SE, were analyzed using ANOVA followed by Tukey-HSD Multiple Comparison Test. Statistical significance was p<0.05.
On Day-3, when these animals were administered with […] of SEQ ID NO: 1 subdermally, the withdrawal response was at 21.3 g, compared to the withdrawal response of saline group at 12.7 g, constituting an increase of 68%. The data expressed as mean±SE, were analyzed using ANOVA followed by Tukey-HSD Multiple Comparison Test. Statistical significance was p<0.05.

[2] = system: Arabidopsis thaliana plants; assay: Flowering of treated plants; assay type: in vivo; settings: 10 μm in 0.01% Silwet L-77
chronic pain = assay: Topical administration to an adult subject with chronic pain, scaled score 1 to 10; assay type: in vivo, human
Experimental: An adult subject suffering from chronic pain as a result from of multiple fractures to both tibia and fibula in both legs and severe traumatic soft tissue damage was topically administered a composition containing a polypeptide of SEQ ID NO: 1 at regions experiencing pain (mostly knees and ankles). The pharmaceutical formulation administered comprised of 5 μM of SEQ ID NO: 1 in 0.01% Silwet L-77. Relief was noticed within 15 min. after administration of a single dose of about 5 μg/10 cm2 of SEQ ID NO: 1. […] A scaled score of 1 to 10 was used to evaluate treatment efficacy where a score of 10 represented a patient with sever pain discomfort and complete inability to walk. A scaled score of 1 represented a patient experiencing no pain and able to freely walk or move the legs. Prior to treatment, the patient scored an 8-9 representing chronic pain and difficulties in walking long distance. After the treatment, the patient scored a 2-3 representing a significant decrease in pain. Treatment efficacy lasted for about 10 days.

[3] = system: post-operative pain in rats; assay: Von Frey testing for mechanical allodynia, post-operative pain (Brennan model), first study; assay type: in vivo, rat
From the text: A total of forty (40) male Sprague Dawley rats (Harlan Sprague Dawley Inc., Indianapolis, Ind., USA) were used in the study. The rats are specific pathogen free and approximately 250 grams upon arrival. The rats were housed in the vivarium in clear polycarbonate plastic cages (48×27×20 cm); 2 rats per cage until a few days prior to surgery at which point they were singularly housed for the remainder of the study procedures. The bedding material is irradiated corn-cob bedding (Bed-O-Cob, The Andersons, Maumee, Ohio, USA) that was changed weekly. The rats were acclimated for two weeks prior to the commencement of the experimental procedures. The room in which the rats were housed throughout the study was supplied with HEPA filtered air at the rate of 10-15 air changes per hour. The temperature was maintained at 18-26° C. with a relative humidity of 30-70%. Illumination is approximately 300 lumens/m^2 at 1 m above floor level on a 12-hour light/dark cycle. […]
On days 1 and 3 post-surgery, the rats underwent Von Frey testing for mechanical allodynia. Tactile sensitivity (i.e. mechanical allodynia) was measured using calibrated filaments touched to the plantar surface of the affected limb. […]
FIG. 1. Data were analyzed using a one-way ANOVA followed by Newman-Keuls' Multiple Comparison. […]

[4] = system: Sauromatum guttatum appendix; assay: Modulation of heat generated by salicylic acid (SA) in appendix sections; settings: appendix sections in aqueous SA with or without peptide
Experimental: (§1) In one example, using Sauromatum guttatum as the experimental module, on the day of inflorescence-opening, the Sauromatum appendix (a 20-40 cm-long, slender organ) becomes warm, reaching a 32° C. temperature (Skubatz et al., 1991, Plant Physiol. 95:1084-1088). The heat generated by the appendix is generated by the mitochondria. This mitochondrial activity can be triggered by the addition of phenolic compounds, including but not limited to, salicylic acid, aspirin, and 2,6-dihydroxybenzoic acid. Test agents can be applied to the plant and the plant's temperature may be monitored in vivo.
FIG. 5 illustrates modulation of heat generated by salicylic acid (SA) in the presence of human opioid peptides (β-Endorphin, SEQ ID NO: 19 and Nueuropeptide AF, SEQ ID NO: 44) and, the Alzheimer's peptide, Aβ 1-42, SEQ ID NO: 49, and, a plant virulent bacterial pathogen (Pst DC3000). One day before heat-production, sections of the appendix were placed in different aqueous solutions containing salicylic acid (SA) with or without a peptide or with the bacterial plant pathogen, Pseudomonas syringae pv. Tomato, DC3000. Sections from the appendix were placed in distilled water that was not generated any heat is the control (water). Temperature was recorded with thermocouples attached to the sections every 5 min.

[5] = system: Sauromatum guttatum appendix; assay: Modulation of heat generated by aspirin (ASA) in appendix sections; settings: appendix sections in aqueous ASA with or without peptide
Experimental: as §1
One day before heat-production, sections of the appendix were placed in different aqueous solutions containing ASA with or without an opioid peptide. [Leu]-Enkephalin, SEQ ID NO: 15; Human β-Endorphin; SEQ ID NO: 19; Dynorphin A, SEQ ID NO: 21; Endomorphin 2, SEQ ID NO: 24; Neuropeptide AF, SEQ ID NO: 44; β-human-Casomorphin, SEQ ID NO: 47; Alzheimer's peptide, SEQ ID NO: 48. […] Temperature was recorded with thermocouples attached to the section every 5 min.

[6] = system: Pseudomonas syringae pv tomato, DC3000; assay: Systemic resistance of plants to a virulent bacterial pathogen; assay type: in vivo, Arabidopsis ecotype Columbia (Col-0); settings: 20 μl salicylic acid at 1 mM and 20 μl SEQ ID NO: 15 applied together to the leaves
Experimental: Seeds of Arabidopsis ecotype Columbia (Col-0) were planted in potting soil. Plants were cultivated in a growth chamber with 10-h d (200 μmol m^−2 s^−1 at 22° C.) and 14-h night (18° C.) cycles and 80% RH. Once a week plants were supplied with water and modified one-half strength Hoagland nutrient solution: 2 mM KNO 5 mM Ca(NO3)2 and trace elements, pH 7.
A virulent plant pathogen, Pst Pseudomonas syringae pv tomato, DC3000 was grown at 28° C. on King's medium B containing 40 mg/L tetracycline. Plants were inoculated with 1×10^7 cfu/ml of the pathogen in 0.01% Silwet L77 (v/v) (a surfactant) and distilled water 5 weeks after sowing. The bacterial suspension or a control solution (0.01% Silwet L77 in water) was then sprayed on the plant once.
Disease symptoms in Arabidopsis are water-soaked, spreading lesions, sometimes surrounded by chlorotic margin that eventually lead to yield loss and plant death.
To test the efficacy of SEQ ID NO: 15, some healthy and some disease plants were sprayed with salicylic acid in 0.01%. Silwet L77; some healthy and some disease plants were sprayed with SEQ ID NO: 15 in 0.01%. Silwet L77, and some healthy and some disease plants were sprayed with salicylic acid in combination with SEQ ID NO: 15 in 0.01%. Silwet L77. A control group of some healthy and some disease plants were sprayed with water in 0.01%. Silwet L77. […]

[7] = system: Sauromatum guttatum appendix; assay: Modulation of heat generated by 2,6-dihydroxybenzoic acid (2,6-DHBA) in appendix sections; peptide alone in a second experiment
Experimental: as §1
FIG. 6 illustrates modulation of heat generated by 2,6-dihydroxybenzoic acid in the presence of the Alzheimer's peptide, A.β.1-42, SEQ ID NO: 49 and a plant gene derived sequence in the Sauromatum guttatum appendix. One day before heat-production, sections of the appendix were placed in different solutions containing 2,6-dihydroxybenzoic acid (2,6-DHBA) with or without SEQ ID NO: 2 (FLPSEFGVDVDR) and SEQ ID NO: 49. Heat-production was monitored with thermocouples attached to the sections. A section placed in distilled water that was not generated any heat is the control (water). […] The temperature was recorded every 5 min.

Compound: FLPS (Description of Unknown: Arabidopsis thaliana or Homo sapiens) [SEQ ID NO: 1]
- increase in the pain threshold ([1]; 1 mg/kg on day 1, 3-hour post surgery measurements): 39%
- effect compared to the saline group at the same time-point ([1]; 50 mg/kg subdermal, Day-1, 3 h after surgery): 125%
- withdrawal response ([1]; 50 mg/kg subdermal, Day-1, 3 h after surgery, saline group 4.4 g): 9.9 g
- increase in response time compared to the saline group ([1]; Day 3, group which did not receive any further dosing): 31%
- increase of withdrawal response compared to saline group ([1]; Day-3, 15.25 mg/kg subdermally): 68%
- withdrawal response ([1]; Day-3, 15.25 mg/kg subdermally (animals given 1 mg/kg on day 1), saline group 12.7 g): 21.3 g
- flowering [2]: induces early flowering and abundance of flowers and pods
- scaled pain score after the treatment (chronic pain; scale 1 (no pain) to 10 (severe pain), prior to treatment 8-9): 2-3
- duration of treatment efficacy (chronic pain; topical, single dose): about 10 days
- duration of relief (chronic pain; topical, single dose of about 5 μg/10 cm2): more than a week
- time until relief was noticed (chronic pain; topical, single dose of about 5 μg/10 cm2, 5 μM in 0.01% Silwet L-77): ≤ 15 min
- pain (mechanical allodynia, paw withdrawal threshold, FIG. 1) ([3]; rats 3 days after surgery, 150 μg topical or subdermal, p<0.05): significantly reduce pain
- appearance of the rats ([3]; rats after surgery, treated): relaxed and with less anxiety

Compound: AGEGLNSQFWSLAAPQRF [SEQ ID NO: 44]
- modulation of heat generated by salicylic acid (SA) (FIG. 5) [4]: modulate thermogenicity in plants
- modulation of heat generated by aspirin (ASA) (FIG. 4) [5]: can modulate thermogenicity in plants

Compound: YGGFL [SEQ ID NO: 15]
- systemic resistance to the virulent bacteria [6]: enough to trigger systemic resistance
- modulation of heat generated by aspirin (ASA) (FIG. 4) [5]: can modulate thermogenicity in plants

Compound: YGGFLRRIRPKLKWDNQ [SEQ ID NO: 21]
- modulation of heat generated by aspirin (ASA) (FIG. 4) [5]: can modulate thermogenicity in plants

Compound: YPFF [SEQ ID NO: 24]
- modulation of heat generated by aspirin (ASA) (FIG. 4) [5]: can modulate thermogenicity in plants

Compound: YPFVEPIP [SEQ ID NO: 47]
- modulation of heat generated by aspirin (ASA) (FIG. 4) [5]: can modulate thermogenicity in plants

Compound: YGGFMTSEKSQTPLVTLFKNAIIKNAYKKGE [SEQ ID NO: 19]
- modulation of heat generated by salicylic acid (SA) (FIG. 5) [4]: modulate thermogenicity in plants
- modulation of heat generated by aspirin (ASA) (FIG. 4) [5]: can modulate thermogenicity in plants

Compound: FLPSEFGVDVDR [SEQ ID NO: 2]
- modulation of heat generated by 2,6-dihydroxybenzoic acid (FIG. 6) ([7]; appendix sections in 2,6-DHBA with or without peptide): modulate thermogenicity in plants
- heat generation by the peptide ([7]; second experiment, up to 50 μM, data not shown): did not generate heat

Compound: O=C(O)c1ccccc1O [salicylic acid]
- systemic resistance to the virulent bacteria [6]: enough to trigger systemic resistance
